{"source": "patent US9707242B2", "about": "“Use of 25-hydroxyvitamin D3 to enhance executive functions” (DSM IP ASSETS B.V., priority 2013, dated 2017)", "key": {"frail elderly": {"test_system": "frail elderly", "experiment": "Example 2: double-blind, randomized, placebo-controlled trial in the frail elderly", "assay_type": "in vivo, human", "source_text": "The design is a parallel group, randomized, placebo-controlled, double-blind study with three different application groups. Each group has an appropriate number of participants (e.g., 20 participants). Eligibility is defined as being 65 years or older and being frail or pre-frail. Frailty is defined as having unintentional weight loss, weakness, self-reported exhaustion, slow walking speed, and/or low physical activity (see Fried L P, et al. Frailty in older adults: evidence for a phenotype. J Gerontol A Biol Sci Med Sci. […] A participant is classified as pre-frail when one or two of the aforementioned criteria are met, while frail is classified when three or more criteria are present. […] The duration of supplementation is 6 months (180 days). […] Double-blind randomization is carried out by means of a label code associated with a specific participant ID number, whose meaning is known only to the supplier. Participants are allocated randomly to these numbers. […] For baseline (Day 0) the following tests are performed: […] […] Executive functioning test batteries include the following standard tests of executive functioning: Trail Making Tests A and B (to determine the ratio of TMT-B/TMT-A), Stroop Colour-Word Test, including determining the Stroop ratio, calculated by Stroop card 3/((Stroop card 1+Stroop card 2)/2) and animal fluency test. […]"}, "healthy adults under 65": {"test_system": "healthy adults under 65", "parameters": "species or system human", "details": "in vivo", "source_text": "The design is a parallel group, randomized, placebo-controlled, double-blind study similar to that of Example 2, above, except that the participants are healthy adults under 65. The duration of supplementation is 6 months (180 days). Group size is chosen so that a statistically significant difference, if present, may be observed between placebo and test groups.\nParticipants are randomly allocated to either the 25-OH D3 group, Vitamin D3 group, (Vitamin D3+25-OH D3) group or placebo group. Double-blind randomization is carried out by means of a label code associated with a specific participant ID number, whose meaning is known only to the supplier. Participants are allocated randomly to these numbers.\nFor baseline (Day 0) the following tests are performed: Physical examination, vital signs (blood pressure, heart rate), demographics, clinical laboratory, FFQ, serum: 25-OH D3, 24,25(OH)2D, 1,25(OH)2D3, Vitamin D3, calcium, albumin, creatinine, fasting glucose, PTH; urine: calcium, creatinine; executive function tests (see below). […]\nExecutive functioning test batteries include the following standard tests of executive functioning: Trail Making Tests A and B (to determine the ratio of TMT-B/TMT-A), Stroop Colour-Word Test, including determining the Stroop ratio, calculated by Stroop card 3/((Stroop card 1+Stroop card 2)/2) and animal fluency test. […]"}}, "data": [{"smiles": "C=C1CC[C@H](O)C/C1=C/C=C1\\CCC[C@]2(C)[C@@H]([C@H](C)CCCC(C)(C)O)CC[C@@H]12", "note": "[25(OH)D, 25-hydroxyvitamin D3]", "values": [{"measurement": "improvement of executive functioning", "setting": "frail elderly; frail elderly, 6 months, in comparison to Vitamin D3 and placebo", "value": "significantly higher effect"}, {"measurement": "25-OH D3 serum level", "setting": "frail elderly; in vivo", "value": "significantly increases"}, {"measurement": "25-OH D serum level", "setting": "healthy adults under 65", "value": "significantly increases"}]}]}
